Holding throughout (format): cell-based
For assay [1], the target named is T1, GIP receptor (Homo sapiens, UniProt P48546).
T1 sequence (P48546 22-466): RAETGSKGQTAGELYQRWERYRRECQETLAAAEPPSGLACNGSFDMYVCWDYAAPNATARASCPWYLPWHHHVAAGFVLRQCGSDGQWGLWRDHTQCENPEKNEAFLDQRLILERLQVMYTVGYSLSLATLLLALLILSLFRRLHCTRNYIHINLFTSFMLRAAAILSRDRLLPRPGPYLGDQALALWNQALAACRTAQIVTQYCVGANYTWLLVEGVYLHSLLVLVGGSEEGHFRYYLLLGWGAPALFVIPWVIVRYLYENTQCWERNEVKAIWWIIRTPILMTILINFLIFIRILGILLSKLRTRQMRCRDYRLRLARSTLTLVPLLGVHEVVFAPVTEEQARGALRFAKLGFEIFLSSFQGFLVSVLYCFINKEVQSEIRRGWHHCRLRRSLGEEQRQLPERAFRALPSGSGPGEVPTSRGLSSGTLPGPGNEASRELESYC
In words: HitHunter cAMP assay, GIP receptor. The following applies: for Emax: read-out: Emax GIP-1R. Background: Changes in cAMP serve as a functional read-out for many G protein-coupled receptors.

For assay [2], the target named is T2, GLP-1 receptor (Homo sapiens, UniProt P43220). Put plainly: PathHunter β-arrestin assay, GLP-1 receptor. Also noted: host or cells: PathHunter CHO-K1 GLP1R β-Arrestin Cell Line.
For assay [3], the target named is T2, GLP-1 receptor. Put plainly: HitHunter cAMP assay, GLP-1 receptor. As to conditions: for Emax: read-out: Emax GLP-1R.
Method: CAMP accumulation was measured in Chinese hamster ovary (CHO) cells stably expressing the human GLP-1 receptor or GIP receptor using the HitHunter CAMP Assay for Small Molecules Kit (Eurofins). Briefly, cells were grown in Ham's F12 Nutrient Mix with 10% FBS and lifted with Cell dissociation buffer, Enzyme free, PBS based (ThermoFisher). Cells were pelleted and resuspended in Hank's buffered saline solution with 10 mM Hepes and 625 μM 3-isobutyl-1-methylxanthine. The antibody reagent was then added to cells at a 1:2 ratio and 5 μL of mixture was seeded in 384-well small volume white assay plates, at 10,000 cells/well. Cells were then treated with 50 nl compound in DMSO using an ECHO 550 acoustic dispenser (Labcyte) in a 20-point dose response format in triplicate for 30 min. Cells were the lysed and detection reagents added according to the manufacturer's protocol. After overnight incubation, luminescence was measured using a Perkin Elmer Envision plate reader. Raw data was normalized to the maximum signal from GLP-1 or GIP (high) and DMSO (low). Dose response curves were analyzed using GraphPad Prism 9.0.
For assay [4], the target named is T1, GIP receptor. Put plainly: PathHunter β-arrestin assay, GIP receptor. Also noted: host or cells: PathHunter CHO-K1 GIPR β-Arrestin Cell Line.
Method: β-arrestin-2 recruitment for GLP-1 receptor or GIP receptor was measured using the DiscoverX PathHunter Detection Kit and PathHunter® CHO-K1 GLPIR β-Arrestin Cell Line or PathHunter® CHO-K1 GIPR β-Arrestin Cell Line, respectively). Briefly, cells were grown in Ham's F12 Nutrient Mix with 10% FBS and lifted with Cell dissociation buffer, Enzyme free, PBS based (ThermoFisher). Harvested cells were pelleted and resuspended in Assay Complete Cell Plating Reagent 2 and 5000 cells per well were plated in tissue culture treated 384-well small volume white assay plates. Plates were then incubated at 37° C. and 5% CO2 overnight. The media was then replaced with fresh Assay Complete Cell Plating Reagent 2. Cells were then treated with 10 nl compound in DMSO using an ECHO 550 acoustic dispenser (Labcyte) in a 20-point dose response format in duplicate for 90 min at 37° C. The assay was then completed according to the manufacturer's instructions. Luminescence was measured using a Perkin Elmer Envision plate reader. Raw data was normalized to the maximum signal from GLP-1 or GIP (high) and DMSO (low). Dose response curves were analyzed using GraphPad Prism 9.0.
The mark [5] stands for this setting: CHO cells stably expressing GIP receptor, cAMP accumulation, 30 min, read-out: EC50 GIP-1R.
The mark [6] stands for this setting: CHO cells, cAMP, normalized to maximum signal from GIP (high) and DMSO (low).
The mark [7] stands for this setting: β-arrestin-2 recruitment, PathHunter CHO-K1 GLP1R β-Arrestin Cell Line, 90 min at 37° C., normalized to GLP-1, read-out: GLP-1R β Arrestin EC50.
Where [8] appears, read: CHO cells stably expressing human GLP-1 receptor, cAMP accumulation, 30 min, read-out: EC50 GLP-1R.
Where [9] appears, read: CHO cells, cAMP, normalized to maximum signal from GLP-1 (high) and DMSO (low).
[10] abbreviates: β-arrestin-2 recruitment, PathHunter CHO-K1 GIPR β-Arrestin Cell Line, 90 min at 37° C., normalized to GIP, read-out: GIPR β Arrestin EC50.

Read-outs that look alike come from different tables or passages of the source. *1 amine or outer side, *2 acyl side, *3 side chain or, on linkers, in order; H or OH if unused. Where a SMILES comes first, the peptide text is derived from it. Side-chain parts run from the residue outwards. [ ]: non-standard residue; d: D form. The star is where a group is joined. Isobutyryl(2-(3-CN-5-F-Ph)) = CC(C)(C(=O)*)c1cc(F)cc(C#N)c1; C20 diacid = O=C(O)CCCCCCCCCCCCCCCCCCC(=O)*; C18 diacid = O=C(O)CCCCCCCCCCCCCCCCC(=O)*; γGlu = O=C(O)[C@H](CCC(=O)[*:2])N[*:1]; X45 = CC(Cn1cc(Br)cn1)NCCC(=O)*; X16 = FC(F)(F)c1cccc(N*)c1; X29 = Fc1ccc(N*)c(F)c1; AEEA = NCCOCCOCC(=O)O; Aib = CC(C)(N)C(=O)O; CO = O=C([*:1])[*:2]; GABA = NCCCC(=O)O; βAla = NCCC(=O)O Where only a bound is given, the exact number is not on record here.

T2 sequence (P43220 24-463): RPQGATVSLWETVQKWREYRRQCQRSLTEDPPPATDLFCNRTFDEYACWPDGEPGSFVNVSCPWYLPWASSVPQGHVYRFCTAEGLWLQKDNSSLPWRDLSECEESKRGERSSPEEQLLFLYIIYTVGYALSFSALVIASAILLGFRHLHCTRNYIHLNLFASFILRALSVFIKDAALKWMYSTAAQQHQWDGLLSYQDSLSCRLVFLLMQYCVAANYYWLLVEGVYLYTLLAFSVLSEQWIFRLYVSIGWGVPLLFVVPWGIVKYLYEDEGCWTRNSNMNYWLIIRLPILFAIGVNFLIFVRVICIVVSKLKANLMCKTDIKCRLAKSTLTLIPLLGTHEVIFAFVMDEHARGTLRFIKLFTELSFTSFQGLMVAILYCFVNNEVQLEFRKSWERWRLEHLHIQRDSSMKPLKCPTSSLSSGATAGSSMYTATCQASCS

With `CC[C@H](C)[C@H](NC(=O)[C@H](CC(C)C)NC(=O)[C@H](Cc1c[nH]c2ccccc12)NC(=O)[C@H](CCC(N)=O)NC(=O)[C@@H](NC(=O)[C@H](Cc1ccccc1)NC(=O)[C@H](C)NC(=O)[C@H](CCCCNC(=O)COCCOCCNC(=O)COCCOCCNC(=O)CC[C@H](NC(=O)CCCCCCCCCCCCCCCCCCC(=O)O)C(=O)O)NC(=O)[C@H](CCC(N)=O)NC(=O)[C@H](C)NC(=O)[C@@H](NC(=O)[C@H](CCCCN)NC(=O)[C@H](CC(=O)O)NC(=O)[C@H](CC(C)C)NC(=O)C(C)(C)NC(=O)[C@@H](NC(=O)[C@H](CO)NC(=O)[C@H](Cc1ccc(O)cc1)NC(=O)[C@H](CC(=O)O)NC(=O)[C@H](CO)NC(=O)[C@@H](NC(=O)[C@H](Cc1ccccc1)NC(=O)[C@@H](NC(=O)CNC(=O)[C@H](CCC(=O)O)NC(=O)CCCNC(=O)CNC(=O)Nc1ccc(F)cc1F)[C@@H](C)O)[C@@H](C)O)[C@@H](C)CC)[C@@H](C)CC)C(C)C)C(=O)N[C@@H](C)C(=O)NCC(=O)NCC(=O)N1CCC[C@H]1C(=O)N[C@@H](CO)C(=O)N[C@@H](CO)C(=O)NCC(=O)N[C@@H](C)C(=O)N1CCC[C@H]1C(=O)N1CCC[C@H]1C(=O)N1CCC[C@H]1C(=O)N[C@@H](CO)C(N)=O` [Compound 267] ({X29-CO}-G[GABA]EGTFTSDYSI[Aib]LDKIAQK([AEEA-AEEA-γGlu-C20 diacid])AFVQWLIAGGPSSGAPPPS-NH2), the EC50 (as a rule, the concentration that produces a half-maximal response) on GIP receptor [1] (setting [5]) is 0.001 to 0.01 µM; on GLP-1 receptor [2] (setting [7]), greater than 1 µM; at GLP-1 receptor [3] (setting [8]), 0.001 to 0.01 µM; at GIP receptor [4] (setting [10]) it was greater than 1 µM. For the same molecule, the Emax (commonly the maximal effect, on the per cent scale that the assay sets) is 106% at GIP receptor [1] (setting [6]) and 105% on GLP-1 receptor [3] (setting [9]).

As to `CC[C@H](C)[C@H](NC(=O)[C@H](CC(C)C)NC(=O)[C@H](Cc1c[nH]c2ccccc12)NC(=O)[C@H](CCC(N)=O)NC(=O)[C@@H](NC(=O)[C@H](Cc1ccccc1)NC(=O)[C@H](C)NC(=O)[C@H](CCCCNC(=O)COCCOCCNC(=O)COCCOCCNC(=O)CC[C@H](NC(=O)CCCCCCCCCCCCCCCCCCC(=O)O)C(=O)O)NC(=O)[C@H](CCC(N)=O)NC(=O)[C@H](C)NC(=O)[C@@H](NC(=O)[C@H](CCCCN)NC(=O)[C@H](CC(=O)O)NC(=O)[C@H](CC(C)C)NC(=O)C(C)(C)NC(=O)[C@@H](NC(=O)[C@H](CO)NC(=O)[C@H](Cc1ccc(O)cc1)NC(=O)[C@H](CC(=O)O)NC(=O)[C@H](CO)NC(=O)[C@@H](NC(=O)[C@H](Cc1ccccc1)NC(=O)[C@@H](NC(=O)CNC(=O)[C@H](CCC(=O)O)NC(=O)CCNC(C)Cn1cc(Br)cn1)[C@@H](C)O)[C@@H](C)O)[C@@H](C)CC)[C@@H](C)CC)C(C)C)C(=O)N[C@@H](C)C(=O)NCC(=O)NCC(=O)N1CCC[C@H]1C(=O)N[C@@H](CO)C(=O)N[C@@H](CO)C(=O)NCC(=O)N[C@@H](C)C(=O)N1CCC[C@H]1C(=O)N1CCC[C@H]1C(=O)N1CCC[C@H]1C(=O)N[C@@H](CO)C(N)=O` (stereo partly drawn) [Compound 274] (X45-EGTFTSDYSI[Aib]LDKIAQK([AEEA-AEEA-γGlu-C20 diacid])AFVQWLIAGGPSSGAPPPS-NH2), the EC50 was 0.1 to 1 µM on GIP receptor [1] (setting [5]), greater than 1 µM at GLP-1 receptor [2] (setting [7]), 0.01 to 0.1 µM at GLP-1 receptor [3] (setting [8]) and greater than 1 µM on GIP receptor [4] (setting [10]). Besides, the Emax at GIP receptor [1] (setting [6]) amounted to 36%; on GLP-1 receptor [3] (setting [9]) it was 88%.

As to `CC[C@H](C)[C@H](NC(=O)[C@H](CC(C)C)NC(=O)[C@H](Cc1c[nH]c2ccccc12)NC(=O)[C@H](CCC(N)=O)NC(=O)[C@@H](NC(=O)[C@H](Cc1ccccc1)NC(=O)[C@H](C)NC(=O)[C@H](CCCCNC(=O)COCCOCCNC(=O)COCCOCCNC(=O)CC[C@H](NC(=O)CCCCCCCCCCCCCCCCCCC(=O)O)C(=O)O)NC(=O)[C@H](CCC(N)=O)NC(=O)[C@H](C)NC(=O)[C@@H](NC(=O)[C@H](CCCCN)NC(=O)[C@H](CC(=O)O)NC(=O)[C@H](CC(C)C)NC(=O)C(C)(C)NC(=O)[C@@H](NC(=O)[C@H](CO)NC(=O)[C@H](Cc1ccc(O)cc1)NC(=O)[C@H](CC(=O)O)NC(=O)[C@H](CO)NC(=O)[C@@H](NC(=O)[C@H](Cc1ccccc1)NC(=O)[C@@H](NC(=O)CNC(=O)[C@H](CCC(=O)O)NC(=O)CCCNC(=O)CNC(=O)Nc1cccc(C(F)(F)F)c1)[C@@H](C)O)[C@@H](C)O)[C@@H](C)CC)[C@@H](C)CC)C(C)C)C(=O)N[C@@H](C)C(=O)NCC(=O)NCC(=O)N1CCC[C@H]1C(=O)N[C@@H](CO)C(=O)N[C@@H](CO)C(=O)NCC(=O)N[C@@H](C)C(=O)N1CCC[C@H]1C(=O)N1CCC[C@H]1C(=O)N1CCC[C@H]1C(=O)N[C@@H](CO)C(N)=O` [Compound 263] ({X16-CO}-G[GABA]EGTFTSDYSI[Aib]LDKIAQK([AEEA-AEEA-γGlu-C20 diacid])AFVQWLIAGGPSSGAPPPS-NH2), the EC50 is 0.001 to 0.01 µM on GIP receptor [1], greater than 1 µM at GLP-1 receptor [2], 0.001 to 0.01 µM on GLP-1 receptor [3] and greater than 1 µM on GIP receptor [4]. The Emax at GIP receptor [1] (CHO) came to 104%; on GLP-1 receptor [3] (CHO) it was 98%.

With `CC[C@H](C)[C@H](NC(=O)[C@H](CC(C)C)NC(=O)[C@H](Cc1c[nH]c2ccccc12)NC(=O)[C@H](CCC(N)=O)NC(=O)[C@@H](NC(=O)[C@H](Cc1ccccc1)NC(=O)[C@H](C)NC(=O)[C@H](CCCCNC(=O)COCCOCCNC(=O)COCCOCCNC(=O)CC[C@H](NC(=O)CCCCCCCCCCCCCCCCCCC(=O)O)C(=O)O)NC(=O)[C@H](CCC(N)=O)NC(=O)[C@H](C)NC(=O)[C@@H](NC(=O)[C@H](CCCCN)NC(=O)[C@H](CC(=O)O)NC(=O)[C@H](CC(C)C)NC(=O)C(C)(C)NC(=O)[C@@H](NC(=O)[C@H](CO)NC(=O)[C@H](Cc1ccc(O)cc1)NC(=O)[C@H](CC(=O)O)NC(=O)[C@H](CO)NC(=O)[C@@H](NC(=O)[C@H](Cc1ccccc1)NC(=O)[C@@H](NC(=O)CNC(=O)[C@H](CCC(=O)O)NC(=O)CCNC(=O)C(C)(C)c1cc(F)cc(C#N)c1)[C@@H](C)O)C(C)C)[C@@H](C)CC)[C@@H](C)CC)C(C)C)C(=O)N[C@@H](C)C(=O)NCC(=O)NCC(=O)N1CCC[C@H]1C(=O)N[C@@H](CO)C(=O)N[C@@H](CO)C(=O)NCC(=O)N[C@@H](C)C(=O)N1CCC[C@H]1C(=O)N1CCC[C@H]1C(=O)N1CCC[C@H]1C(=O)N[C@@H](CO)C(N)=O` [Compound 166] ({Isobutyryl(2-(3-CN-5-F-Ph))-βAla}-EGTFVSDYSI[Aib]LDKIAQK([AEEA-AEEA-γGlu-C20 diacid])AFVQWLIAGGPSSGAPPPS-NH2), the EC50 is 0.001 to 0.01 µM at GIP receptor [1] (setting [5]), greater than 1 µM at GLP-1 receptor [2] (setting [7]), 0.01 to 0.1 µM on GLP-1 receptor [3] (setting [8]) and less than 1 µM on GIP receptor [4] (setting [10]). Further, the Emax at GIP receptor [1] (setting [6]) turned out to be 108%; at GLP-1 receptor [3] (setting [9]) it was 77%.

Regarding `CC[C@H](C)[C@H](NC(=O)[C@H](CC(C)C)NC(=O)[C@H](Cc1c[nH]c2ccccc12)NC(=O)[C@H](CCC(N)=O)NC(=O)[C@@H](NC(=O)[C@H](Cc1ccccc1)NC(=O)[C@H](C)NC(=O)[C@H](CCCCNC(=O)COCCOCCNC(=O)COCCOCCNC(=O)CC[C@H](NC(=O)CCCCCCCCCCCCCCCCC(=O)O)C(=O)O)NC(=O)[C@H](CCC(N)=O)NC(=O)[C@H](C)NC(=O)[C@@H](NC(=O)[C@H](CCCCN)NC(=O)[C@H](CC(=O)O)NC(=O)[C@H](CC(C)C)NC(=O)C(C)(C)NC(=O)[C@@H](NC(=O)[C@H](CO)NC(=O)[C@H](Cc1ccc(O)cc1)NC(=O)[C@H](CC(=O)O)NC(=O)[C@H](CO)NC(=O)[C@@H](NC(=O)[C@H](Cc1ccccc1)NC(=O)[C@@H](NC(=O)CNC(=O)[C@H](CCC(=O)O)NC(=O)CCNC(=O)C(C)(C)c1cc(F)cc(C#N)c1)[C@@H](C)O)[C@@H](C)O)[C@@H](C)CC)[C@@H](C)CC)C(C)C)C(=O)N[C@@H](C)C(=O)NCC(=O)NCC(=O)N1CCC[C@H]1C(=O)N[C@@H](CO)C(=O)N[C@@H](CO)C(=O)NCC(=O)N[C@@H](C)C(=O)N1CCC[C@H]1C(=O)N1CCC[C@H]1C(=O)N1CCC[C@H]1C(=O)N[C@@H](CO)C(N)=O` [Compound 106] ({Isobutyryl(2-(3-CN-5-F-Ph))-βAla}-EGTFTSDYSI[Aib]LDKIAQK([AEEA-AEEA-γGlu-C18 diacid])AFVQWLIAGGPSSGAPPPS-NH2), the concentration giving a half-maximal response (EC50) on GIP receptor [1] (setting [5]) is 0.01 to 0.1 µM; on GLP-1 receptor [2] (setting [7]), greater than 1 µM; on GLP-1 receptor [3] (setting [8]), 0.0001 to 0.001 µM; at GIP receptor [4] (setting [10]), greater than 1 µM. Also, the Emax came to 98% at GIP receptor [1] (setting [6]) and 97% on GLP-1 receptor [3] (setting [9]).

These data come from patent US12281149B2, “Modulators of G-protein coupled receptors” (priority 2021, dated 2025).
